Measured values from patent publication US20070010402A1, “Novel herbicides, usage thereof, novel thienopyrimidine derivatives, intermediates of the same, and process for production thereof” (NIHON NOHYAKU CO., LTD.,, priority 2002, published 2007).

How the values were obtained:
Assay in all cases: Field foliar treatment test (Test Example 1)
Assay type in all cases: in vivo
Settings in all cases: foliar spray at 1.0- to 2.0-leaf stage, wettable powder, active ingredient 10 g/a, 21st day from the treatment
Brassica juncea = tested on: Brassica juncea
Procedure: (§1) Alluvial soil from a field was put in a resin-made vat having an area of 200 cm^2. After fertilization, the seeds of Echinochloa crus-galli, Brassica juncea, and Ipomoea purpurea were cast on the soil and uniformly covered with the soil. Then, cultivation was continued in a greenhouse, and when the weeds to be tested reached the 1.0- to 2.0-leaf stage, the wettable powder obtained in Formulation Example 1 was diluted with water and a predetermined amount thereof was sprayed uniformly to the weeds by means of a small-sized power pressure spray to give 10 g of the active ingredient per an are. Thereafter, cultivation was further continued in the greenhouse, and the herbicidal effect was examined on the 21st day from the treatment. The results obtained are shown in Table 7 (the compound numbers in Table 7 correspond to those in Table 1 to 6). The herbicidal effect was evaluated in terms of herbicidal rate obtained from the following equation: Herbicidal rate (%)=[1−(Weight of weeds above the ground in a treated plot)/(Weight of weeds above the ground in a non-treated plot)]×100 and was expressed by herbicidal index according to the following criteria. [table]

Echinochloa crus-galli = tested on: Echinochloa crus-galli
Procedure: as §1

Ipomoea purpurea = tested on: Ipomoea purpurea
Procedure: as §1

Structure (SMILES)	Herbicidal effect Brassica juncea (herbicidal index) (Brassica juncea)	Herbicidal effect Echinochloa crus-galli (herbicidal index) (Echinochloa crus-galli)	Herbicidal effect Ipomoea purpurea (herbicidal index) (Ipomoea purpurea)
Cc1cc2c(-c3cccc(C(F)(F)F)c3)nc(OCC(Cl)(Cl)Cl)nc2s1 [6-98]	4 (71 to 90)	5 (91 to 100)	5 (91 to 100)
Cc1cccc(-c2nc(OC(C)C)nc3sc(C)cc23)c1 [6-215]	5 (91 to 100)	5 (91 to 100)	5 (91 to 100)
Cc1cc2c(-c3cccc(C)c3C)nc(OCC(F)(F)F)nc2s1 [6-245]	5 (91 to 100)	4 (71 to 90)	5 (91 to 100)
Cc1cc2c(-c3cccc(C(F)(F)F)c3)nc(OC3CCCC3)nc2s1 [6-80]	5 (91 to 100)	5 (91 to 100)	5 (91 to 100)
C#CC(C)Oc1nc(-c2cccc(OC(F)(F)F)c2)c2sc(C)cc2n1 (stereo not drawn) [6-236]	5 (91 to 100)	5 (91 to 100)	5 (91 to 100)
Cc1cc2c(-c3cccc(OC(F)(F)F)c3)nc(OCC(F)(F)C(F)F)nc2s1 [6-112]	5 (91 to 100)	5 (91 to 100)	5 (91 to 100)
Cc1cc2c(-c3cccc(C(F)(F)F)c3)nc(-n3cccn3)nc2s1 [6-192]	4 (71 to 90)	4 (71 to 90)	5 (91 to 100)
Cc1cc2c(-c3cccc(C(F)(F)F)c3)nc(-n3ccnc3C)nc2s1 [6-194]	5 (91 to 100)	4 (71 to 90)	5 (91 to 100)
Cc1cc2c(-c3cccc(C(F)(F)F)c3)nc(OCCF)nc2s1 [6-96]	5 (91 to 100)	4 (71 to 90)	5 (91 to 100)
CCCOc1nc(-c2ccc(F)c(C(F)(F)F)c2)c2cc(C)sc2n1 [Compound No. 6-29, 4-[4-fluoro-3-(trifluoromethyl)phenyl]-6-methyl-2-propoxythieno[2,3-d]pyrimidine]	4 (71 to 90)	4 (71 to 90)	5 (91 to 100)
Cc1cc2c(-c3cccc(OC(F)F)c3)nc(OCC(F)(F)C(F)F)nc2s1 [6-125]	5 (91 to 100)	5 (91 to 100)	5 (91 to 100)
Cc1cc2c(-c3ccccc3OC(F)(F)F)nc(OCC(F)(F)F)nc2s1 [6-251]	5 (91 to 100)	5 (91 to 100)	5 (91 to 100)
Cc1cc2c(-c3cccc(OC(F)(F)F)c3)nc(OC3CCCC3)nc2s1 [6-85]	4 (71 to 90)	5 (91 to 100)	5 (91 to 100)
Cc1cc2c(-c3ccccc3C)nc(OCC(F)(F)F)nc2s1 [6-217]	5 (91 to 100)	4 (71 to 90)	5 (91 to 100)
Cc1cc2c(-c3cccc(Br)c3)nc(OC3CCCC3)nc2s1 [6-61]	4 (71 to 90)	4 (71 to 90)	4 (71 to 90)
C#CC(C)Oc1nc(-c2cccc(C(F)(F)F)c2)c2cc(C)sc2n1 (stereo not drawn) [6-90]	5 (91 to 100)	5 (91 to 100)	5 (91 to 100)

Structure (SMILES)	Herbicidal effect Brassica juncea (herbicidal index) (Brassica juncea)	Herbicidal effect Echinochloa crus-galli (herbicidal index) (Echinochloa crus-galli)	Herbicidal effect Ipomoea purpurea (herbicidal index) (Ipomoea purpurea)
Cc1cc2c(-c3ccc(F)c(C(F)(F)F)c3)nc(OC3CCCC3)nc2s1 [6-83]	4 (71 to 90)	5 (91 to 100)	5 (91 to 100)
Cc1cc2c(-c3ccccc3C(F)(F)F)nc(OCC(F)(F)C(F)F)nc2s1 [6-249]	5 (91 to 100)	4 (71 to 90)	5 (91 to 100)
COCC(C)Oc1nc(-c2cccc(C(F)(F)F)c2)c2cc(C)sc2n1 (stereo not drawn) [6-142]	4 (71 to 90)	5 (91 to 100)	5 (91 to 100)
Cc1cc2c(-c3ccc(F)c(C(F)(F)F)c3)nc(OCC(F)(F)F)nc2s1 [6-207]	5 (91 to 100)	5 (91 to 100)	5 (91 to 100)
CCCOc1nc(-c2cccc(OC(F)(F)F)c2)c2cc(C)sc2n1 [6-35]	5 (91 to 100)	5 (91 to 100)	5 (91 to 100)
Cc1cc2nc(OCC(F)(F)F)nc(-c3cccc(OC(F)(F)F)c3)c2s1 [6-235]	5 (91 to 100)	5 (91 to 100)	5 (91 to 100)
CCCOc1nc(-c2cccc(SC(F)(F)F)c2)c2cc(C)sc2n1 [6-39]	4 (71 to 90)	5 (91 to 100)	5 (91 to 100)
Cc1cc2c(-c3cccc(C(F)(F)F)c3)nc(-n3cncn3)nc2s1 [6-193]	4 (71 to 90)	4 (71 to 90)	5 (91 to 100)
Cc1cc2c(-c3ccccc3OC(F)(F)F)nc(Cl)nc2s1 [5-31]	5 (91 to 100)	4 (71 to 90)	5 (91 to 100)
CCCOc1nc(-c2cccc(OC(F)F)c2)c2cc(C)sc2n1 [6-40]	5 (91 to 100)	4 (71 to 90)	5 (91 to 100)
Cc1cc2c(-c3cccc(C(F)(F)F)c3)nc(OCC(F)(F)F)nc2s1 [6-97]	5 (91 to 100)	5 (91 to 100)	5 (91 to 100)
Cc1cc2c(-c3cccc(OC(F)(F)F)c3)nc(OCC(F)F)nc2s1 [6-109]	5 (91 to 100)	5 (91 to 100)	4 (71 to 90)
Cc1cc2c(-c3cccc(SC(F)(F)F)c3)nc(OCC(F)(F)F)nc2s1 [6-115]	5 (91 to 100)	5 (91 to 100)	5 (91 to 100)
Cc1cc2c(Oc3cccc(OC(F)(F)F)c3)nc(-n3ccc(C(F)(F)F)n3)nc2s1 [6-202]	4 (71 to 90)	4 (71 to 90)	5 (91 to 100)
C=CCCOc1nc(-c2cccc(C(F)(F)F)c2)c2cc(C)sc2n1 [6-92]	5 (91 to 100)	5 (91 to 100)	4 (71 to 90)
Cc1cc2c(-c3cccc(C(F)(F)F)c3)nc(OCc3ccco3)nc2s1 [6-187]	5 (91 to 100)	4 (71 to 90)	5 (91 to 100)
